Measurements: article PMC10291556 (Journal of Medicinal Chemistry, 2023)

Legend:
COX-2 in HeLa cells = assay: Western blotting of COX-2; format: cell-based, human; conditions: 24 h, 1×, 3× IC50, Western blot
Method: (B) Quantitative evaluation of Western blotting data; the relative expression of COX-2 normalized to GAPDH. Data represents the mean ± SD of two experiments. The stars indicate the statistical significance of difference vs control determined with the Student t-test (*p < 0.05, **p < 0.01, ***p < 0.001).
HeLa cells were seeded in 60 mm dishes at a density of 3 × 10^5 cells/dish and cultured for 20 h. The cells were then treated with the tested compounds at concentrations indicated in the text. After 24 h of treatment, the cells were scraped, washed, and pelleted. […] 4–20% SDS-PAGE (sodium dodecyl sulfate-polyacrylamide gel electrophoresis) (Mini-PROTEAN TGX Precast Gel) was used to resolve the proteins. After transferring to the polyvinylidene fluoride membrane, the proteins were detected using appropriate antibodies: anti-GAPDH antibody (mouse, Sigma-Aldrich), Anti-COX-2 (rabbit, Abcam), Anti-α-, β-, or γ-tubulin (all rabbit, Abcam), Anti-β-actin (mouse, Abcam), Goat Anti-Rabbit IgG(HRP) (Abcam; HRP = horseradish peroxidase), and Goat Anti-Mouse IgG(HRP) (ThermoFisher Scientific). SignalFire ECL Reagent (A + B) was used as a substrate for HRP, and the luminescence was recorded with Amersham Imager 680. The densities in the images were assessed with the Aida image analysis software.

MRC-5 = assay: MTT assay in non-cancerous fibroblasts, 72 h; format: cell-based; conditions: non-cancerous human fibroblasts, 72 h incubation, mean ± SD
Method: Cells were treated with the tested compounds in a final volume of 200 μL/well. […] Calbiochem, Darmstadt, Germany) was added, and the cells were incubated for an additional 2–4 h. The medium was removed, and the insoluble formazan product was dissolved in 100 μL/well DMSO. […] The read values were converted to the percentage of control. […] All experiments were made in triplicate.

HeLa cells [1] = assay: Cellular accumulation of platinum (ICP-MS); format: cell-based, human; conditions: for cellular uptake 0.1 μM/24 h: 0.1 μM complex; for cellular uptake 1 μM/6 h: 1 μM complex; for cellular uptake 10 μM/6 h: 10 μM complex; for cellular uptake relative to Pt(IV) complex 2: Table 3
Method: Briefly, 3 × 10^6 cells were seeded in 100 mm culture dishes and grown overnight. The cells were exposed to the tested complexes at indicated concentrations for indicated periods. […] The pellets were digested using the microwave acid (HCl) digestion system (CEM Mars). The platinum quantity taken up by the cells was determined by inductively coupled plasma mass spectrometry (ICP–MS). All experiments were performed in triplicate.

HeLa cells [2] = assay: Mitochondrial membrane potential (TMRE, flow cytometry); format: cell-based, human; conditions: 10× IC50, 1 h, vs untreated control
Method: Figure 4 Changes in the mitochondrial membrane potential Δψm in HeLa cells. The cells were treated with Pt compounds at the concentrations corresponding to 10× IC50 for 1 h and subsequently stained with TMRE. The fluorescence was measured by flow cytometry. Data represents mean ± SD from three independent experiments, *p < 0.01.
HeLa cells were seeded (6-well plates, 3 × 10^5 cells/well), grown overnight, and then treated with the tested compounds for 1 h. The medium was removed, and a fresh medium containing TMRE (Thermo Fisher Scientific) at a final concentration of […] in 500 μL was added. The cells were incubated for 30 min at 37 °C and then harvested using trypsin. TMRE fluorescence was measured with a fluorescence-activated cell sorting (FACS) Verse flow cytometer (Becton Dickinson), and the data were analyzed using the ModFit LT 4.1 (Verity Software House) software. The experiment was performed in triplicate.

HeLa cells [3] = assay: Re-adhesion assay; format: cell-based, human; conditions: 10× IC50, 1 h
Method: Figure 7 (A–E) Wound healing assay. The monolayer of HeLa cells was scratched with a 10 μL tip, and a starving medium containing the tested complexes was added. The shots were taken at times 0 and 24 h. (A) Control, non-treated cells; (B) cells treated with complex 3; (C) cells treated with complex 4. […] (E) Evaluation of wound healing assay. Bars represent gap size vs. Control (100%), following a 24 h incubation with the investigated compounds. Light gray bars: complex 3; dark gray bars: complex 4; black bar: complex 2. (F) Re-adhesion assay. […] Following trypsinization, the cells were resuspended in Dulbecco’s modified Eagle medium (DMEM), counted, left to reconstitute adhesive membrane proteins for 30 min, and re-seeded at the density of 3× 10^4 cells/100 μL/well. After 30 min of incubation at 37 °C, the re-adhesion activity was determined as described in the Experimental Section. […]
HeLa cells were grown in 6-well plates for 24 h. […] Following the treatment, the cells were trypsinized, washed, and resuspended in fresh serum-free medium, counted, and left at room temperature for 30 min to allow surface receptor reconstitution. […] The number of adhered cells was determined with sulforhodamine B (SRB) assay. […] The bound SRB was dissolved in 10 mM Tris base (pH 10.5), and the absorbance was recorded at 570 nm with an Absorbance Reader (SUNRISE TECAN, SCHOELLER). […]

HeLa cells [4] = assay: Glucose consumption; format: cell-based, human; conditions: 24 h, IC50 concentrations
Method: Figure 3 (A) Lactate production. Relative lactate concentration in medium following a 6 h treatment of HeLa cells with the investigated compounds at concentrations corresponding to 5× IC50. […] Data represents mean ± SD, n = 2–4; asterisks indicate a statistically significant difference from the untreated control (*p < 0.01, **p < 0.005, ***, ***p < 0.001).
Glucose concentration in the culture medium prior to and after the treatment was determined with an Amplex Red Glucose/Glucose Oxidase Assay Kit (Invitrogen) following the producer’s protocol. Glucose consumption was normalized to final cell counts. The glucose amount consumed by the non-treated control was taken at 100%.

Row | SMILES | intracellular level of COX-2 protein (COX-2 in HeLa cells) | IC50 (MRC-5) | cellular uptake 0.1 μM/24 h (HeLa cells [1]) | cellular uptake 1 μM/6 h (HeLa cells [1]) | cellular uptake 10 μM/6 h (HeLa cells [1]) | cellular uptake relative to Pt(IV) complex 2 (HeLa cells [1]) | mitochondrial membrane potential Δψm (TMRE fluorescence) (HeLa cells [2]) | re-adhesion to the growth surface (HeLa cells [3]) | glucose consumption (HeLa cells [4])
1 | Cc1c(C)c2c3c4c1=CC=C[N]4[Pt]([Cl])[N]3C=CC=2.NCCNC(=O)Cc1ccccc1Nc1c(Cl)cccc1Cl.N[C@H]1CCCC[C@@H]1N [complex 3, Pt(IV)56MESSenDCFCl] | able to reduce the intracellular level of COX-2 protein | 700 ± 100 nM | 3.6 ± 0.2 ng Pt/10^6 cells | 9.6 ± 0.8 ng Pt/10^6 cells | 61 ± 8 ng Pt/10^6 cells | 1.3–1.6 fold | significant (p < 0.01) decrease in TMRE fluorescence | lower the ability of HeLa cells to re-adhere to the growth surface | reduction in glucose consumption
2 | Cc1c(C)c2c3c4c1=CC=C[N]4[Pt][N]3C=CC=2.NCCNC(=O)Cc1ccccc1Nc1c(Cl)cccc1Cl.NCCNC(=O)Cc1ccccc1Nc1c(Cl)cccc1Cl.N[C@H]1CCCC[C@@H]1N [complex 4, Pt^IV56MeSS(DCF)2] | able to reduce the intracellular level of COX-2 protein | 320 ± 80 nM | 3.9 ± 0.3 ng Pt/10^6 cells | 11 ± 2 ng Pt/10^6 cells | 82 ± 7 ng Pt/10^6 cells | 1.7–1.8 fold | significant (p < 0.01) decrease in TMRE fluorescence | lower the ability of HeLa cells to re-adhere to the growth surface | reduction in glucose consumption
